# Biological target: T1, human recombinant PDE9 enzyme (Homo sapiens, UniProt O76083)
# T1 construct: made in house; host or cells: SF-9 insect cells
# Test: Phosphodiesterase 9 (PDE9) inhibitory activity, Scintillation Proximity (SPA) assay
# Format: biochemical
# Conditions: not given
# Procedure: Phosphodiesterase 9 (PDE9) Inhibitory Activity The PDE9 assay was performed using the Phosphodiesterase Scintillation Proximity (SPA) assay (GE Healthcare Life Sciences). […] The human recombinant PDE9 enzyme was generated in SF-9 cells, the cell pellets were sonicated in buffer (20 mM TRIS, 2 mM benzamidine, 1 mM EDTA, 250 mM sucrose, 100 μM PMSF, pH 7.5 with HCl), centrifuged at 40,000×g for 20 min at 4° C. The supernatants were stored at −80° C. […] Test compounds were dissolved in DMSO, diluted in DI H2O and serially diluted in 20% DMSO/80% H2O, for a final concentration of 2% DMSO. For the assay the PDE9 was diluted with assay buffer such that 20% or less of the substrate was hydrolyzed to 5′GMP. Each assay well contained 10 μl of test compound or solvent, 40 μl of [^3H]CGMP and 50 μl of enzyme, background was determined by a high concentration of a PDE inhibitor. The assay was initiated with the addition of the enzyme and carried out at room temperature for 30 min. […] The plates were sealed, vortexed, allowed to set for >300 min, then counted in a Wallac TriLux MicroBeta LSC.
# T1 sequence (O76083 whole entry): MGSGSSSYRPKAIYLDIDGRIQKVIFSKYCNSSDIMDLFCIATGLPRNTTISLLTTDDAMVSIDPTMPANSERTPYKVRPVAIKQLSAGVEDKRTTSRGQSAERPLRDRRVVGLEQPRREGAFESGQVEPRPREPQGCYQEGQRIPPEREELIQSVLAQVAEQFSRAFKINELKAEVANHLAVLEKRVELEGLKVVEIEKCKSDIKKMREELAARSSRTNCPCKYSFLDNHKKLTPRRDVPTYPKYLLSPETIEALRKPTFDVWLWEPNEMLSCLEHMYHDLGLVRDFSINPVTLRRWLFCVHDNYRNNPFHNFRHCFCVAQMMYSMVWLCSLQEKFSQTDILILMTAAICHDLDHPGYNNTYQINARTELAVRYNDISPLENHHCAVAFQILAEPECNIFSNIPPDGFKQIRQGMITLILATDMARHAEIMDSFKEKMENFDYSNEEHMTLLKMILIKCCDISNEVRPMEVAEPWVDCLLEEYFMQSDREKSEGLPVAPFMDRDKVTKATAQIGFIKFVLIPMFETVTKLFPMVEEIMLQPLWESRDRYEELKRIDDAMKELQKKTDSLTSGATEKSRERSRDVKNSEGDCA
row,IC50 [nM],SMILES
1,7.2,"CCC1CN(Cc2ccccc2)CC1c1nc2c(cnn2C2CCOCC2)c(=O)[nH]1 (racemic) [97(a), 6-[(3,4-trans)-1-benzyl-4-ethylpyrrolidin-3-yl]-1-(tetrahydro-2H-pyran-4-yl)-1,5-dihydro-4H-pyrazolo[3,4-d]pyrimidin-4-one]"

# Same assay, conditions: human recombinant PDE9 from SF-9 cells; 50 nM [3H]cGMP; room temperature, 30 min; Examples 3-114; read-out: G5678A (U): IC50
row,IC50 [nM],SMILES
1,624,"C[C@@H]1CN(c2nccc(C(F)(F)F)n2)C[C@H]1c1nc2c(cnn2C2CCCC2)c(=O)[nH]1 (racemic) [Example 4, 1-cyclopentyl-6-{(3,4-trans)-4-methyl-1-[4-(trifluoromethyl)pyrimidin-2-yl]pyrrolidin-3-yl}-1,5-dihydro-4H-pyrazolo[3,4-d]pyrimidin-4-one]"
2,558,"C[C@@H]1CN(c2ncccn2)C[C@H]1c1nc2c(cnn2C2CCCC2)c(=O)[nH]1 (racemic) [Example 5, 1-cyclopentyl-6-[(3,4-trans)-4-methyl-1-pyrimidin-2-ylpyrrolidin-3-yl]-1,5-dihydro-4H-pyrazolo[3,4-d]pyrimidin-4-one]"
3,57.1,"C[C@@H]1CN(C(=O)c2ccccc2)C[C@H]1c1nc2c(cnn2C2CCCC2)c(=O)[nH]1 (racemic) [Example 6, 6-[(3,4-trans)-1-benzoyl-4-methylpyrrolidin-3-yl]-1-cyclopentyl-1,5-dihydro-4H-pyrazolo[3,4-d]pyrimidin-4-one]"
4,11.6,"C[C@@H]1CN(Cc2cccnc2)C[C@H]1c1nc2c(cnn2C2CCCC2)c(=O)[nH]1 (racemic) [Example 7, 1-cyclopentyl-6-[(3,4-trans)-4-methyl-1-(pyridin-3-ylmethyl)pyrrolidin-3-yl]-1,5-dihydro-4H-pyrazolo[3,4-d]pyrimidin-4-one]"
5,11.2,"C[C@@H]1CN(Cc2cccc(C(F)(F)F)c2)C[C@H]1c1nc2c(cnn2C2CCCC2)c(=O)[nH]1 (racemic) [Example 8, 1-cyclopentyl-6-{(3,4-trans)-4-methyl-1-[3-(trifluoromethyl)benzyl]pyrrolidin-3-yl}-1,5-dihydro-4H-pyrazolo[3,4-d]pyrimidin-4-one]"
6,2.84,"C[C@@H]1CN(Cc2ccc3ccccc3n2)C[C@H]1c1nc2c(cnn2C2CCCC2)c(=O)[nH]1 (racemic) [Example 9, 1-cyclopentyl-6-[(3,4-trans)-4-methyl-1-(quinolin-2-ylmethyl)pyrrolidin-3-yl]-1,5-dihydro-4H-pyrazolo[3,4-d]pyrimidin-4-one]"
7,4.98,"C[C@@H]1CN(Cc2ccnc3ccccc23)C[C@H]1c1nc2c(cnn2C2CCCC2)c(=O)[nH]1 (racemic) [Example 10, 1-cyclopentyl-6-[(3,4-trans)-4-methyl-1-(quinolin-4-ylmethyl)pyrrolidin-3-yl]-1,5-dihydro-4H-pyrazolo[3,4-d]pyrimidin-4-one]"
8,18.9,"C[C@@H]1CN(Cc2ccc(C(F)(F)F)nc2)C[C@H]1c1nc2c(cnn2C2CCCC2)c(=O)[nH]1 (racemic) [Example 11, 1-cyclopentyl-6-[(3,4-trans)-4-methyl-1-{[6-(trifluoromethyl)pyridin-3-yl]methyl}pyrrolidin-3-yl]-1,5-dihydro-4H-pyrazolo[3,4-d]pyrimidin-4-one]"
9,7.23,"C[C@@H]1CN(Cc2cnc3ccccc3n2)C[C@H]1c1nc2c(cnn2C2CCCC2)c(=O)[nH]1 (racemic) [Example 12, 1-cyclopentyl-6-[(3,4-trans)-4-methyl-1-(quinoxalin-2-ylmethyl)pyrrolidin-3-yl]-1,5-dihydro-4H-pyrazolo[3,4-d]pyrimidin-4-one]"
10,6.61,"C[C@@H]1CN(Cc2ccc3nccnc3c2)C[C@H]1c1nc2c(cnn2C2CCCC2)c(=O)[nH]1 (racemic) [Example 13, 1-cyclopentyl-6-[(3,4-trans)-4-methyl-1-(quinoxalin-6-ylmethyl)pyrrolidin-3-yl]-1,5-dihydro-4H-pyrazolo[3,4-d]pyrimidin-4-one]"
11,26,"C[C@@H]1CN(Cc2cncnc2)C[C@H]1c1nc2c(cnn2C2CCCC2)c(=O)[nH]1 (racemic) [Example 14, 1-cyclopentyl-6-[(3,4-trans)-4-methyl-1-(pyrimidin-5-ylmethyl)pyrrolidin-3-yl]-1,5-dihydro-4H-pyrazolo[3,4-d]pyrimidin-4-one]"
12,16.2,"Cc1ncccc1CN1C[C@@H](C)[C@H](c2nc3c(cnn3C3CCCC3)c(=O)[nH]2)C1 (racemic) [Example 17, 1-cyclopentyl-6-{(3,4-trans)-4-methyl-1-[(2-methylpyridin-3-yl)methyl]pyrrolidin-3-yl}-1,5-dihydro-4H-pyrazolo[3,4-d]pyrimidin-4-one]"
13,8.26,"C[C@@H]1CN(Cc2cccc3cccnc23)C[C@H]1c1nc2c(cnn2C2CCCC2)c(=O)[nH]1 (racemic) [Example 18, 1-cyclopentyl-6-[(3,4-trans)-4-methyl-1-(quinolin-8-ylmethyl)pyrrolidin-3-yl]-1,5-dihydro-4H-pyrazolo[3,4-d]pyrimidin-4-one]"
14,2.68,"C[C@@H]1CN(Cc2cnc3ccccc3c2)C[C@H]1c1nc2c(cnn2C2CCCC2)c(=O)[nH]1 (racemic) [Example 19, 1-cyclopentyl-6-[(3,4-trans)-4-methyl-1-(quinolin-3-ylmethyl)pyrrolidin-3-yl]-1,5-dihydro-4H-pyrazolo[3,4-d]pyrimidin-4-one]"
15,7.06,"Cc1ccc(CN2C[C@@H](C)[C@H](c3nc4c(cnn4C4CCCC4)c(=O)[nH]3)C2)cn1 (racemic) [Example 20, 1-cyclopentyl-6-{(3,4-trans)-4-methyl-1-[(6-methylpyridin-3-yl)methyl]pyrrolidin-3-yl}-1,5-dihydro-4H-pyrazolo[3,4-d]pyrimidin-4-one]"
16,34.5,"CC(C)[C@@H]1CN(Cc2ccccc2)C[C@H]1c1nc2c(cnn2C2CCCC2)c(=O)[nH]1 (racemic) [Example 21, 6-[(3,4-trans)-1-benzyl-4-isopropylpyrrolidin-3-yl]-1-cyclopentyl-1,5-dihydro-4H-pyrazolo[3,4-d]pyrimidin-4-one]"
17,43.6,"Cc1nn(C2CCCC2)c2nc([C@@H]3CN(Cc4ccccc4)C[C@H]3C)[nH]c(=O)c12 (racemic) [Example 22, 6-[(3,4-trans)-1-benzyl-4-methylpyrrolidin-3-yl]-1-cyclopentyl-3-methyl-1,5-dihydro-4H-pyrazolo[3,4-d]pyrimidin-4-one]"
18,119,"C[C@@H]1CN(CCc2ccccc2)C[C@H]1c1nc2c(cnn2C2CCCC2)c(=O)[nH]1 (racemic) [Example 24, 1-cyclopentyl-6-[(3,4-trans)-4-methyl-1-(2-phenylethyl)pyrrolidin-3-yl]-1,5-dihydro-4H-pyrazolo[3,4-d]pyrimidin-4-one]"
19,9.07,"COc1ccc(CN2C[C@@H](C)[C@H](c3nc4c(cnn4C4CCCC4)c(=O)[nH]3)C2)cn1 (racemic) [Example 25, 1-cyclopentyl-6-{(3,4-trans)-1-[(6-methoxypyridin-3-yl)methyl]-4-methylpyrrolidin-3-yl}-1,5-dihydro-4H-pyrazolo[3,4-d]pyrimidin-4-one]"
20,11.4,"C[C@@H]1CN(Cc2ccccn2)C[C@H]1c1nc2c(cnn2C2CCCC2)c(=O)[nH]1 (racemic) [Example 26, 1-cyclopentyl-6-[(3,4-trans)-4-methyl-1-(pyridin-2-ylmethyl)pyrrolidin-3-yl]-1,5-dihydro-4H-pyrazolo[3,4-d]pyrimidin-4-one]"
21,7.45,"Cc1cccnc1CN1C[C@@H](C)[C@H](c2nc3c(cnn3C3CCCC3)c(=O)[nH]2)C1 (racemic) [Example 27, 1-cyclopentyl-6-{(3,4-trans)-4-methyl-1-[(3-methylpyridin-2-yl)methyl]pyrrolidin-3-yl}-1,5-dihydro-4H-pyrazolo[3,4-d]pyrimidin-4-one]"
22,6.86,"CC[C@@H]1CN(Cc2ccccc2)C[C@H]1c1nc2c(cnn2C2CCCC2)c(=O)[nH]1 (racemic) [Example 28, 6-[(3,4-trans)-1-benzyl-4-ethylpyrrolidin-3-yl]-1-cyclopentyl-1,5-dihydro-4H-pyrazolo[3,4-d]pyrimidin-4-one]"
23,2.17,"O=c1[nH]c([C@@H]2CN(Cc3ccccc3)C[C@H]2C2CC2)nc2c1cnn2C1CCCC1 (racemic) [Example 29, 6-[(3,4-trans)-1-benzyl-4-cyclopropylpyrrolidin-3-yl]-1-cyclopentyl-1,5-dihydro-4H-pyrazolo[3,4-d]pyrimidin-4-one]"
24,5.19,"CC(C)n1ncc2c(=O)[nH]c([C@@H]3CN(Cc4ccc5ccccc5n4)C[C@H]3C)nc21 (racemic) [Example 32, 1-isopropyl-6-[(3,4-trans)-4-methyl-1-(quinolin-2-ylmethyl)pyrrolidin-3-yl]-1,5-dihydro-4H-pyrazolo[3,4-d]pyrimidin-4-one]"
25,6.29,"CC(C)n1ncc2c(=O)[nH]c([C@@H]3CN(Cc4ccc5nccnc5c4)C[C@H]3C)nc21 (racemic) [Example 33, 1-isopropyl-6-[(3,4-trans)-4-methyl-1-(quinoxalin-6-ylmethyl)pyrrolidin-3-yl]-1,5-dihydro-4H-pyrazolo[3,4-d]pyrimidin-4-one]"
26,4.33,"CC(C)n1ncc2c(=O)[nH]c([C@@H]3CN(Cc4cnc5ccccc5c4)C[C@H]3C)nc21 (racemic) [Example 34, 1-isopropyl-6-[(3,4-trans)-4-methyl-1-(quinolin-3-ylmethyl)pyrrolidin-3-yl]-1,5-dihydro-4H-pyrazolo[3,4-d]pyrimidin-4-one]"

# — patent US7964607B2, “Pyrazolo[3,4-d]pyrimidine compounds” (Pfizer Inc., priority 2007, dated 2011)
